Source: patent US20100092526A1, “NANOEMULSION THERAPEUTIC COMPOSITIONS AND METHODS OF USING THE SAME” (NanoBio Corporation, priority 2008, published 2010)
In brackets after ≈: the same amount, converted by molar mass.

System: Pseudomonas aeruginosa
Assay: MIC/MBC against CF isolates (CLSI, alamar blue)

MIC (CF Pseudomonas isolate NB1): 1024 µg/mL (≈ 1980 µM) | MIC (CF Pseudomonas isolate NB2): 128 µg/mL (≈ 247 µM) | MIC (CF Pseudomonas isolate NB3): >1024 µg/mL | MIC (CF Pseudomonas isolate NB4): 512 µg/mL (≈ 989 µM) | MIC (CF Pseudomonas isolate NB5): >1024 µg/mL | MIC (CF Pseudomonas isolate NB6): 1024 µg/mL (≈ 1980 µM) | MIC (CF Pseudomonas isolate NB7): 512 µg/mL (≈ 989 µM) | MIC (CF Pseudomonas isolate NB8): >1024 µg/mL | MIC (CF Pseudomonas isolate NB9): 512 µg/mL (≈ 989 µM) | MIC (CF Pseudomonas isolate NB10): 256 µg/mL (≈ 495 µM)
Structure (SMILES): CCN1CCN(C(=O)N[C@@H](C(=O)N[C@@H]2C(=O)N3[C@@H]2SC(C)(C)[C@@H]3C(=O)O)c2ccccc2)C(=O)C1=O [Pipercillin]
MBC (CF Pseudomonas isolate NB1): 1024 µg/mL (≈ 1980 µM) | MBC (CF Pseudomonas isolate NB2): 128 µg/mL (≈ 247 µM) | MBC (CF Pseudomonas isolate NB3): >1024 µg/mL | MBC (CF Pseudomonas isolate NB4): 1024 µg/mL (≈ 1980 µM) | MBC (CF Pseudomonas isolate NB5): >1024 µg/mL | MBC (CF Pseudomonas isolate NB6): >1024 µg/mL | MBC (CF Pseudomonas isolate NB7): 1024 µg/mL (≈ 1980 µM) | MBC (CF Pseudomonas isolate NB8): >1024 µg/mL | MBC (CF Pseudomonas isolate NB9): >1024 µg/mL | MBC (CF Pseudomonas isolate NB10): 512 µg/mL (≈ 989 µM)
